Calls of active or inactive are those of the source. The calls are words filed in the database; no cut-off is given here.
Legend:
[1] = molecular target: T1, Ubiquitin carboxyl-terminal hydrolase 1 (Homo sapiens, UniProt O94782); experiment: Inhibition of USP1 (unknown origin)
T1 sequence (O94782 whole entry): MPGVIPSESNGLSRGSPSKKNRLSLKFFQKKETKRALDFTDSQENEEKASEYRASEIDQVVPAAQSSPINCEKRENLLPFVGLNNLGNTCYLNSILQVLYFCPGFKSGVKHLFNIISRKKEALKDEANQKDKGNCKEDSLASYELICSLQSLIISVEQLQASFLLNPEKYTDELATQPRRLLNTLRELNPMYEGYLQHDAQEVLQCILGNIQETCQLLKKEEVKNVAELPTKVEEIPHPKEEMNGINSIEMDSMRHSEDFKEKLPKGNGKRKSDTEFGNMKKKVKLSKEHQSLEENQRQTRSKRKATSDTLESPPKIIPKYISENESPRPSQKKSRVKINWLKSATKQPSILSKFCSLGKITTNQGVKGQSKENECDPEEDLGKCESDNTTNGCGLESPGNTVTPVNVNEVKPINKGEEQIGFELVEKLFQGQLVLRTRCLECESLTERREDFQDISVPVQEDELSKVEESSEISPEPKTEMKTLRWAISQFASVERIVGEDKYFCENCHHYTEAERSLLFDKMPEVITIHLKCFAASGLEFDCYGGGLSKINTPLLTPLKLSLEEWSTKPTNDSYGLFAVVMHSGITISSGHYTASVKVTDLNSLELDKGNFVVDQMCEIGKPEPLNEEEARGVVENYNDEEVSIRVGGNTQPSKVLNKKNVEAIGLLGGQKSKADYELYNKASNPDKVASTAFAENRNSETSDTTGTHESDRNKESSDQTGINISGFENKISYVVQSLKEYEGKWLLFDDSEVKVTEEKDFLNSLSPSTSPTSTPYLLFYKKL

Homo sapiens [2] = species on record: Homo sapiens; experiment: Selectivity index, ratio of IC50 for USP1 (unknown origin) to IC50 for recombinant full length USP7 (unknown origin) using di-ubiquitin as substrate by fluorescence based assay
Homo sapiens [3] = species on record: Homo sapiens; experiment: Selectivity index, ratio of IC50 for USP47 (unknown origin) to IC50 for recombinant full length USP7 (unknown origin) using di-ubiquitin as substrate by fluorescence based assay
[4] = molecular target: Ubiquitin carboxyl-terminal hydrolase 14 (Homo sapiens, UniProt P54578); experiment: Inhibition of USP14 (unknown origin)
[5] = molecular target: T2, Ubiquitin carboxyl-terminal hydrolase 47 (Homo sapiens, UniProt Q96K76); experiment: Inhibition of USP47 (unknown origin)
T2 sequence (Q96K76 whole entry): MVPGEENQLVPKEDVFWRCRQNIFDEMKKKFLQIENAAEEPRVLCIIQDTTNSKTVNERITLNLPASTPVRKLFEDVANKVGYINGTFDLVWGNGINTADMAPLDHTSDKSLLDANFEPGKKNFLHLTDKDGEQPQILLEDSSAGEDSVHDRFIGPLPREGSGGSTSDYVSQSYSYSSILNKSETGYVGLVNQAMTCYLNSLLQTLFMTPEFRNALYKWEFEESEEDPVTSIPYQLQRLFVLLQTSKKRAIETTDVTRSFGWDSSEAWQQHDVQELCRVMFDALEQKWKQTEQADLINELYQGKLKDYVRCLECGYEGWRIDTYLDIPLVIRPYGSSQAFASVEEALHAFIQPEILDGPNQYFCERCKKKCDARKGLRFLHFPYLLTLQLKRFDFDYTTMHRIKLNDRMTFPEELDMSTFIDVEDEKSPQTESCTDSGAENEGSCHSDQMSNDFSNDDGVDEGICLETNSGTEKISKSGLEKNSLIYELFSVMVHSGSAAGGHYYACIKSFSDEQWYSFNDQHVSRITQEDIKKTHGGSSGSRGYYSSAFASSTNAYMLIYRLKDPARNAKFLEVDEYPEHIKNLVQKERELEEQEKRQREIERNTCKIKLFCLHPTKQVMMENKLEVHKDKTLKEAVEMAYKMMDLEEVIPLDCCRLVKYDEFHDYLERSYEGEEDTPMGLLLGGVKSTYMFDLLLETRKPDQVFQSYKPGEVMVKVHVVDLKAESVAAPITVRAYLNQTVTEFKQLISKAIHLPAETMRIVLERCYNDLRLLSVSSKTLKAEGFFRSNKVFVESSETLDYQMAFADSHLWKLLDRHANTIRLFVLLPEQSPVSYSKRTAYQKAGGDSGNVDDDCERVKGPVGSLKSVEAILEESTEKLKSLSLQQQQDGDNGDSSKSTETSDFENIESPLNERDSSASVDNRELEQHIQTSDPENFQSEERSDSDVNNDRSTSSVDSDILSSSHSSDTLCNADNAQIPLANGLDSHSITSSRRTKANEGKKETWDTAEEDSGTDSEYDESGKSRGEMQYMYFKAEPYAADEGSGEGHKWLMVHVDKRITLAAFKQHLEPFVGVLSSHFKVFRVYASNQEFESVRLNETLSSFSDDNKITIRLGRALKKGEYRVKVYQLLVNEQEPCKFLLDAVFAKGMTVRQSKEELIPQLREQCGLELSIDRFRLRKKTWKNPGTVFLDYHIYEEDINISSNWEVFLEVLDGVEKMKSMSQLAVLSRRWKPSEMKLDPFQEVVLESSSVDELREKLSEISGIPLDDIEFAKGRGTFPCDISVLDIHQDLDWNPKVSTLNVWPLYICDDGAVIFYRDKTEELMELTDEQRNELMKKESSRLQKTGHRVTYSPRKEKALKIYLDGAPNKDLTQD

Homo sapiens [6] = species on record: Homo sapiens; experiment: Selectivity index, ratio of IC50 for USP14 (unknown origin) to IC50 for recombinant full length USP7 (unknown origin) using di-ubiquitin as substrate by fluorescence based assay
[7] = molecular target: T3, Ubiquitin carboxyl-terminal hydrolase 7 (Homo sapiens, UniProt Q93009); experiment: Inhibition of recombinant full length USP7 (unknown origin) using di-ubiquitin as substrate by fluorescence based assay
Target sequence in this assay (Q93009 whole entry): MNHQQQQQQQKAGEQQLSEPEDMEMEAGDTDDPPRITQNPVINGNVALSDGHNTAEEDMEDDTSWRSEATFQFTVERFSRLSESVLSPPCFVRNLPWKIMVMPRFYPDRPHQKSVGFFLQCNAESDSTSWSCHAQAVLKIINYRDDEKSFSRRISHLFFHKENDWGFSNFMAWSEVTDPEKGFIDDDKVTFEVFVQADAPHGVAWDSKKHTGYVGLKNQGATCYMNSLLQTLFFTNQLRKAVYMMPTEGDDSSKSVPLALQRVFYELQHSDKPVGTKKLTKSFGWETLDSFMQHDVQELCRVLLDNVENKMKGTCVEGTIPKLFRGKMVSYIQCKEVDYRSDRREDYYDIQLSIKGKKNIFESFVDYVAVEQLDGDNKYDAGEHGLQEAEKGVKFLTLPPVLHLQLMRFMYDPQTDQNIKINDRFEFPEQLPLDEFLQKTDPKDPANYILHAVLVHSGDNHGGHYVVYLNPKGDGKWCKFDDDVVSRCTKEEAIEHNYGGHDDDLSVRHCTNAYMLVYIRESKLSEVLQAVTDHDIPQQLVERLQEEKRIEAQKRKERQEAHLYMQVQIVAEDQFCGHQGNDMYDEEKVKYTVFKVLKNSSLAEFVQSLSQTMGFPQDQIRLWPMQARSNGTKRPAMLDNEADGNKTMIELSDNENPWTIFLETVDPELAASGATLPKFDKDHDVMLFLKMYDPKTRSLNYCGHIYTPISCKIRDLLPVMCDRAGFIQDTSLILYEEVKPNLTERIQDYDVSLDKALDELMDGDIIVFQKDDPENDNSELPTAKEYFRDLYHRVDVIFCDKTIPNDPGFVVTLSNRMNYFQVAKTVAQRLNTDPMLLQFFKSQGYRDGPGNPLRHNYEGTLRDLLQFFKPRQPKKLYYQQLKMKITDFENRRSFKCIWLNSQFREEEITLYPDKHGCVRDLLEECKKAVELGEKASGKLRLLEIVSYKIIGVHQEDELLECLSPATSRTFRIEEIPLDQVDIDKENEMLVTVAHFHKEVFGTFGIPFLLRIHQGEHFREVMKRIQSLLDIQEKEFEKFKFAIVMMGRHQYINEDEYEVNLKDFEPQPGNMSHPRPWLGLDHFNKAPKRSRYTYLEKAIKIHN

[8] = molecular target: T3, Ubiquitin carboxyl-terminal hydrolase 7; experiment: Inhibition of recombinant human C-terminal His-tagged N-terminal GST-tagged full length USP7 using di-ubiquitin as substrate preincubated for 10 mins followed by substrate addition and measured after 60 mins by TR-FRET assay
Target sequence in this assay (Q93009 whole entry): as above

[9] = molecular target: T3, Ubiquitin carboxyl-terminal hydrolase 7; experiment: Binding affinity to USP7 (unknown origin) by 1H-1H-NOESY experiment based analysis
Target sequence in this assay (Q93009 whole entry, looked up): as the sequence (Q93009 whole entry) above

[10] = molecular target: T3, Ubiquitin carboxyl-terminal hydrolase 7; experiment: Allosteric binding affinity to USP7 catalytic domain (unknown origin) at His403, Gln351, Leu304, Ser353, Met328, Trp285 and Gly284 residues at 1.12 mM by NMR-15N-1H TROSY spectral titration analysis
Target sequence in this assay (Q93009 whole entry, looked up): as the sequence (Q93009 whole entry) above

[11] = Aqueous solubility of compound; assay type: physicochemical; details: water (aqueous)
[12] = molecular target: T3, Ubiquitin carboxyl-terminal hydrolase 7; experiment: Binding affinity to USP7 (unknown origin) by 1H-NMR-STD analysis
Target sequence in this assay (Q93009 whole entry, looked up): as the sequence (Q93009 whole entry) above

[13] = molecular target: T3, Ubiquitin carboxyl-terminal hydrolase 7; experiment: Allosteric binding affinity to USP7 catalytic domain (unknown origin) at Met328 residues by NMR-15N-1H TROSY spectral titration analysis
Target sequence in this assay (Q93009 whole entry): as above

[14] = molecular target: T3, Ubiquitin carboxyl-terminal hydrolase 7; experiment: Binding affinity to USP7 (unknown origin) by T2 relaxation experiment based analysis
Target sequence in this assay (Q93009 whole entry): as above

[15] = molecular target: T3, Ubiquitin carboxyl-terminal hydrolase 7; experiment: Allosteric binding affinity to USP7 catalytic domain (unknown origin) at Met328, Trp285, Gly284, Gln405 and Gly313 residues by NMR-15N-1H TROSY spectral titration analysis
Target sequence in this assay (Q93009 whole entry): as above

[16] = molecular target: T3, Ubiquitin carboxyl-terminal hydrolase 7; experiment: Inhibition of recombinant human His-tagged USP7 (208 to 560 residues) expressed in Hi-five Sf9 cells using monoubiquitinated ubiquitin-rhodamine as substrate incubated for 1 hr by fluorescence based assay
Target sequence in this assay (Q93009 whole entry): as above

Ubiquitin carboxyl-terminal hydrolase 14, sequence (P54578 whole entry): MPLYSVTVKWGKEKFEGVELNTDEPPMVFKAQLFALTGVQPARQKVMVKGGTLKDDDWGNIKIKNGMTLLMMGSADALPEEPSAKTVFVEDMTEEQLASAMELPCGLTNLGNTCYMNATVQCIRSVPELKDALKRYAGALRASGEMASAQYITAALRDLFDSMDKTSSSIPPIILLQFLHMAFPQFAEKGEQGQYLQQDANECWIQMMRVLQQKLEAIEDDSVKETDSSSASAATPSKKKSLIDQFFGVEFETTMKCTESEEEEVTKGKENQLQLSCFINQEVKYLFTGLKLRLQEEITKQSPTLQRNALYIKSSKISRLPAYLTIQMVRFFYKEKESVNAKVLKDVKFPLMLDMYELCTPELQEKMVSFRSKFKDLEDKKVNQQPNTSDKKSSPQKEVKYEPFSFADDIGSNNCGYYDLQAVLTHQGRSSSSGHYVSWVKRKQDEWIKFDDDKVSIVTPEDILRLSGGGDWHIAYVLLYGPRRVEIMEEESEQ

Cc1ccc2nc(N)c(-c3ccc(O)cc3)n2c1
IC50 [1]: > 100 µM
Ratio IC50 (Homo sapiens [2]): > 2
Ratio IC50 (Homo sapiens [3]): > 2
IC50 [4]: > 100 µM
IC50 [5]: > 100 µM
Ratio IC50 (Homo sapiens [6]): > 2
IC50 [7]: 39 µM

CCc1c(-c2ccc(C(=O)NC)nc2)cnc(N)c1-c1ccc(O)cc1
IC50 [8]: 1300 nM

CN(C)c1nc2ccccn2c1-c1ccc(O)cc1
IC50 [1]: > 100 µM
Ratio IC50 (Homo sapiens [2]): > 2
Ratio IC50 (Homo sapiens [3]): > 2
IC50 [4]: > 100 µM
IC50 [5]: > 100 µM
Ratio IC50 (Homo sapiens [6]): > 2
IC50 [7]: 24 µM

Cc1cccn2c(-c3ccc(O)cc3)c(N)nc12
IC50 [1]: > 100 µM
Ratio IC50 (Homo sapiens [2]): > 2
Ratio IC50 (Homo sapiens [3]): > 2
IC50 [4]: > 100 µM
IC50 [5]: > 100 µM
Ratio IC50 (Homo sapiens [6]): > 2
IC50 [7]: 8.8 µM

CC(C)Nc1nc2ccccn2c1-c1ccc(O)cc1
IC50 [1]: > 100 µM
Ratio IC50 (Homo sapiens [2]): > 2
Ratio IC50 (Homo sapiens [3]): > 2
IC50 [4]: > 100 µM
IC50 [5]: > 100 µM
Ratio IC50 (Homo sapiens [6]): > 2
IC50 [7]: 7.9 µM

Nc1nc2cc(C(F)(F)F)ccn2c1-c1ccc(O)cc1
IC50 [1]: > 100 µM
Ratio IC50 (Homo sapiens [2]): > 2
Ratio IC50 (Homo sapiens [3]): > 2
IC50 [4]: > 100 µM
IC50 [5]: > 100 µM
Ratio IC50 (Homo sapiens [6]): > 2
IC50 [7]: 42 µM

CC(=O)Nc1nc2ccccn2c1-c1ccc(O)cc1
IC50 [1]: > 100 µM
Activity [9]: Active
Activity [10]: Active
solubility [11]: > 800 µM
Activity [12]: Active
Kd [13]: 580 µM
IC50 [4]: > 100 µM
IC50 [5]: > 100 µM
IC50 [7]: 34 µM
Kd [14]: 540 µM
Kd [15]: 680 µM

Cc1ccn2c(-c3ccc(O)cc3)c(N)nc2c1
IC50 [1]: > 100 µM
Ratio IC50 (Homo sapiens [2]): > 2
Ratio IC50 (Homo sapiens [3]): > 2
IC50 [4]: > 100 µM
IC50 [5]: > 100 µM
Ratio IC50 (Homo sapiens [6]): > 2
IC50 [7]: 27 µM

COc1ccc(-c2c(N)nc3ccccn23)cc1
IC50 [1]: > 100 µM
Ratio IC50 (Homo sapiens [2]): > 2
Ratio IC50 (Homo sapiens [3]): > 2
IC50 [4]: > 100 µM
IC50 [5]: > 100 µM
Ratio IC50 (Homo sapiens [6]): > 2
IC50 [7]: 38 µM

CNc1nc2ccccn2c1-c1ccc(O)cc1
IC50 [1]: > 100 µM
Ratio IC50 (Homo sapiens [2]): > 2
Ratio IC50 (Homo sapiens [3]): > 2
IC50 [4]: > 100 µM
IC50 [5]: > 100 µM
Ratio IC50 (Homo sapiens [6]): > 2
IC50 [7]: 16 µM

Nc1nc2c(C(F)(F)F)cccn2c1-c1ccc(O)cc1
IC50 [1]: > 100 µM
Ratio IC50 (Homo sapiens [2]): > 2
Ratio IC50 (Homo sapiens [3]): > 2
IC50 [4]: > 100 µM
IC50 [5]: > 100 µM
Ratio IC50 (Homo sapiens [6]): > 2
IC50 [7]: 26 µM

Nc1nc2ccc(C(F)(F)F)cn2c1-c1ccc(O)cc1
IC50 [1]: > 100 µM
Ratio IC50 (Homo sapiens [2]): > 2
Ratio IC50 (Homo sapiens [3]): > 2
IC50 [4]: > 100 µM
IC50 [5]: > 100 µM
Ratio IC50 (Homo sapiens [6]): > 2
IC50 [7]: 48 µM

Nc1nc2ccccn2c1-c1ccc(O)cc1
IC50 [1]: > 100 µM
Ratio IC50 (Homo sapiens [2]): > 2
Ratio IC50 (Homo sapiens [3]): > 2
IC50 [4]: > 100 µM
IC50 [5]: > 100 µM
Ratio IC50 (Homo sapiens [6]): > 2
IC50 [7]: 24 µM

O=C(C[C@@H](C(F)F)n1ccc(F)n1)N1CCC(O)(Cn2cnc3c(cnn3-c3ccc(F)cc3)c2=O)CC1
IC50 [16]: 52 nM

Nc1nc2cc(C3CCNCC3)ccn2c1-c1ccc(O)cc1
IC50 [1]: > 100 µM
Ratio IC50 (Homo sapiens [2]): > 2
Ratio IC50 (Homo sapiens [3]): > 2
IC50 [4]: > 100 µM
IC50 [5]: > 100 µM
Ratio IC50 (Homo sapiens [6]): > 2
IC50 [7]: 5.3 µM

Reference: ChEMBL document CHEMBL4725339, “Discovery of USP7 small-molecule allosteric inhibitors” (Bioorg Med Chem Lett, 2020)
